Blank lines part the entries; values can stand above or below the molecule they belong to.
Tests used:
[1] = biological target: DNA (cytosine-5)-methyltransferase 3A (Homo sapiens) (UniProt Q9Y6K1); assay: Selectivity interaction (Methyltransferase screen (radiometric assays, panel of 8 PRMTs, 21 protein lysine methyltransferases, 3 DNA methyltransferases, and one RNA methyltransferase)) EUB0000272b DNMT3A
[2] = biological target: Activin receptor type-1-like (Homo sapiens) (UniProt P37023); assay: Selectivity interaction (KinomeScan (DiscoverX)) EUB0000595a ACVRL1; conditions: at 10 µM
[3] = biological target: T1, Proto-oncogene tyrosine-protein kinase Src (Homo sapiens, UniProt P12931); assay: Selectivity interaction (Kinase panel (enzymatic assay)) EUB0000595a SRC
[4] = biological target: AP2-associated protein kinase 1 (Homo sapiens, UniProt Q2M2I8); conditions: at 10 µM
[5] = biological target: Serine/threonine-protein kinase 32B (Homo sapiens) (UniProt Q9NY57); conditions: at 10 µM
[6] = biological target: Aurora kinase B (Homo sapiens, UniProt Q96GD4); assay: Selectivity interaction (ActivX KiNativ screen (kinase selectivity in THP-1 cell lysates)) EUB0000639a AURKB; type: subcellular; conditions: lysate, at 0.01 µM
[7] = biological target: Serine/threonine-protein kinase Chk2 (Homo sapiens) (UniProt O96017); assay: Selectivity interaction (ActivX KiNativ screen (kinase selectivity in THP-1 cell lysates)) EUB0000639a CHEK2; type: subcellular; conditions: lysate
[8] = biological target: Serine/threonine-protein kinase PLK3 (Homo sapiens, UniProt Q9H4B4); assay: Selectivity interaction (KinomeScan (DiscoverX)) EUB0001049a PLK3; conditions: at 1 µM
[9] = biological target: Phosphorylase b kinase gamma catalytic chain, skeletal muscle/heart isoform (Homo sapiens) (UniProt Q16816); assay: Selectivity interaction (KinomeScan (DiscoverX)) EUB0000092b PHKG1; conditions: at 10 µM
[10] = biological target: T2, Phosphatidylinositol 5-phosphate 4-kinase type-2 beta (Homo sapiens) (UniProt P78356); assay: Selectivity interaction (KinomeScan (DiscoverX)) EUB0000092b PIP4K2B; conditions: at 10 µM
T2 sequence (whole entry): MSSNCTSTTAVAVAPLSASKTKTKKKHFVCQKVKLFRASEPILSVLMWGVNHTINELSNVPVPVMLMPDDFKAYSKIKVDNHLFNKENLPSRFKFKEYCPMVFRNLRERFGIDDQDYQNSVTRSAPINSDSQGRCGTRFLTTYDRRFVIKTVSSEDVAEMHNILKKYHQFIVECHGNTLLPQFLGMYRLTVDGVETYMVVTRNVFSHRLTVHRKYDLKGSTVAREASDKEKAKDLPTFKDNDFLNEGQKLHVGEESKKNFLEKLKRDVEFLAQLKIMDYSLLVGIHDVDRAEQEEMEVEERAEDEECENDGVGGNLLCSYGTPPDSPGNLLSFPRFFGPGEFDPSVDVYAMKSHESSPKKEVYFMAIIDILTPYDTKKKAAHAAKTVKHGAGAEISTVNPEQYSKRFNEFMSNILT

[11] = biological target: T1, Proto-oncogene tyrosine-protein kinase Src; assay: Selectivity interaction (KinomeScan (DiscoverX)) EUB0000092b SRC; conditions: at 10 µM
[12] = biological target: RAC-beta serine/threonine-protein kinase (Homo sapiens) (UniProt P31751); assay: Selectivity interaction (Rxn Biology Kinase assay) EUB0001632a AKT2; conditions: at 10 µM
[13] = biological target: T3, Tyrosine-protein kinase receptor TYRO3 (Homo sapiens) (UniProt Q06418); assay: Selectivity interaction (Kinase panel (Z-LYTE Assay)) EUB0001632a TYRO3; conditions: at 10 µM
T3 sequence (whole entry): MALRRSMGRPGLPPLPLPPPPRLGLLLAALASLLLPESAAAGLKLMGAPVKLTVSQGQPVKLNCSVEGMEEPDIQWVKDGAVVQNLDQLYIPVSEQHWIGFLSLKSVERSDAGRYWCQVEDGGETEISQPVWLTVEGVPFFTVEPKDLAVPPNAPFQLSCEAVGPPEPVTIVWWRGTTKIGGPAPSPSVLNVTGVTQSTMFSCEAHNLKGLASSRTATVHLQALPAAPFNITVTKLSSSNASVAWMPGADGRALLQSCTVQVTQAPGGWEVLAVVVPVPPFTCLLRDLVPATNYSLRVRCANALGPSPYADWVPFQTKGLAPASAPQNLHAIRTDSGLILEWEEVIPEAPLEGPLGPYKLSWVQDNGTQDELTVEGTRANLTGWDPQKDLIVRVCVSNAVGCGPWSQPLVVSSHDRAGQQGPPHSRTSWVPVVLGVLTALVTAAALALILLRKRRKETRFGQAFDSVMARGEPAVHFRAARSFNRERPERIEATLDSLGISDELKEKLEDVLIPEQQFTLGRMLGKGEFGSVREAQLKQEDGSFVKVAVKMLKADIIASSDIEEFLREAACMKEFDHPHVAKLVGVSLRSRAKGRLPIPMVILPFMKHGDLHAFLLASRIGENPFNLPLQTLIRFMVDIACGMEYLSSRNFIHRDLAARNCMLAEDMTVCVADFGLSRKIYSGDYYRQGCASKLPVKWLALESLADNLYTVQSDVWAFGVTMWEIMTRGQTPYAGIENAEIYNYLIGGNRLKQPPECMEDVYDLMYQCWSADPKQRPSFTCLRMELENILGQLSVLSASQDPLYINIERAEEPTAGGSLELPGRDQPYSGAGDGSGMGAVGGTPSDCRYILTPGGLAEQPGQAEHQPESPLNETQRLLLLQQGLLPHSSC

Chain of Serine/threonine-protein kinase Chk2 (Homo sapiens) (O96017 whole entry): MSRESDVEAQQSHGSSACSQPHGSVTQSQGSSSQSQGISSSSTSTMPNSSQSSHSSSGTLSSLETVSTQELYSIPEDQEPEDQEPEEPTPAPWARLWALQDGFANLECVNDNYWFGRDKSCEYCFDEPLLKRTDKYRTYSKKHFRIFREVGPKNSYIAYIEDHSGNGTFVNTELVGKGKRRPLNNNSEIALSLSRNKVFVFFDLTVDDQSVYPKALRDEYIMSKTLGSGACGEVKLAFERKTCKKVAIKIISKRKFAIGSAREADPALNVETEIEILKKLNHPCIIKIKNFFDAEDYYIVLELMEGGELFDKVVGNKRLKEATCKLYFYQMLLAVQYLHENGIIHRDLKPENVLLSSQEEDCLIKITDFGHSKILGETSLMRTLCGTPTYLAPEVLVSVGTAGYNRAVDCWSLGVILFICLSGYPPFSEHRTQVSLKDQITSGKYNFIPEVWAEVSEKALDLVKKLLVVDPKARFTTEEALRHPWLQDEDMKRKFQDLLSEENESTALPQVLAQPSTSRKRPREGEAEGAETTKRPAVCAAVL
Chain of DNA (cytosine-5)-methyltransferase 3A (Homo sapiens) (Q9Y6K1 whole entry, looked up): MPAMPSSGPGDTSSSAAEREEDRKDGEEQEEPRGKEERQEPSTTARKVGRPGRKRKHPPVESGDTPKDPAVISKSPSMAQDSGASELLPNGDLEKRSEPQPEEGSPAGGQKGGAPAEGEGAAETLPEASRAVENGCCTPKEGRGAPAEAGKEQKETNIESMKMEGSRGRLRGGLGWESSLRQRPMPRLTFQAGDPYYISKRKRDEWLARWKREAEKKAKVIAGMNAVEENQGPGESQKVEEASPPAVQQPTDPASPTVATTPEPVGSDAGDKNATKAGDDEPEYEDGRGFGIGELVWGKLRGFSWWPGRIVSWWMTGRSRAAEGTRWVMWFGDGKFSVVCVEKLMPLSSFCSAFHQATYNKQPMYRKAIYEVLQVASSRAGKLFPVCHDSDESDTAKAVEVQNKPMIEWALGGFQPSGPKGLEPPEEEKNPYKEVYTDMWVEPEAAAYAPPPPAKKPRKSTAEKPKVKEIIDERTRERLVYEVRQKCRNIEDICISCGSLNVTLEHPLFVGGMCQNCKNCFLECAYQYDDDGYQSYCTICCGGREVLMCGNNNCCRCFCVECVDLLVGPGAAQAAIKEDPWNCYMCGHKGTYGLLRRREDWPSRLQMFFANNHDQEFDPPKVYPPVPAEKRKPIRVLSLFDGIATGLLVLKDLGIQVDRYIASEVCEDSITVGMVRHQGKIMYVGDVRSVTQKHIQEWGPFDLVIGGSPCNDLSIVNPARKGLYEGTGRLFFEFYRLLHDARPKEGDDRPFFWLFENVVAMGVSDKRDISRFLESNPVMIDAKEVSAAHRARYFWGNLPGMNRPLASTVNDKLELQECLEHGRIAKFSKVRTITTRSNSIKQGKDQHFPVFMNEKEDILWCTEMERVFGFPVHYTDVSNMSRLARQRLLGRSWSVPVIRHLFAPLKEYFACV
T1 sequence (P12931 2-536 limits assumed): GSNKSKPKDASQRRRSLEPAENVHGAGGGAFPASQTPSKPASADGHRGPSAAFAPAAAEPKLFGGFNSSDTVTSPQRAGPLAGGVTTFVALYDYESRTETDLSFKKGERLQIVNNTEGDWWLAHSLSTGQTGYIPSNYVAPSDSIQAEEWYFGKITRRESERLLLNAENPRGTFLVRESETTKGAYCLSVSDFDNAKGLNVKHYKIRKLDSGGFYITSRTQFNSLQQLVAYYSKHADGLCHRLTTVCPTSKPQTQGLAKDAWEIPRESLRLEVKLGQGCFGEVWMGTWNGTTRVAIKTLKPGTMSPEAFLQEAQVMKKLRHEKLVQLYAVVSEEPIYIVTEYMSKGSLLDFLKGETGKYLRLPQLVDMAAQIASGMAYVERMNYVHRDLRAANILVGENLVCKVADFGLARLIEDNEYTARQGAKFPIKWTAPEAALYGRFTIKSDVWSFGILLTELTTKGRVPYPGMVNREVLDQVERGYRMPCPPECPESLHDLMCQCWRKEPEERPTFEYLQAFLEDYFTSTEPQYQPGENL
Chain of Serine/threonine-protein kinase PLK3 (Q9H4B4 whole entry, looked up, canonical isoform): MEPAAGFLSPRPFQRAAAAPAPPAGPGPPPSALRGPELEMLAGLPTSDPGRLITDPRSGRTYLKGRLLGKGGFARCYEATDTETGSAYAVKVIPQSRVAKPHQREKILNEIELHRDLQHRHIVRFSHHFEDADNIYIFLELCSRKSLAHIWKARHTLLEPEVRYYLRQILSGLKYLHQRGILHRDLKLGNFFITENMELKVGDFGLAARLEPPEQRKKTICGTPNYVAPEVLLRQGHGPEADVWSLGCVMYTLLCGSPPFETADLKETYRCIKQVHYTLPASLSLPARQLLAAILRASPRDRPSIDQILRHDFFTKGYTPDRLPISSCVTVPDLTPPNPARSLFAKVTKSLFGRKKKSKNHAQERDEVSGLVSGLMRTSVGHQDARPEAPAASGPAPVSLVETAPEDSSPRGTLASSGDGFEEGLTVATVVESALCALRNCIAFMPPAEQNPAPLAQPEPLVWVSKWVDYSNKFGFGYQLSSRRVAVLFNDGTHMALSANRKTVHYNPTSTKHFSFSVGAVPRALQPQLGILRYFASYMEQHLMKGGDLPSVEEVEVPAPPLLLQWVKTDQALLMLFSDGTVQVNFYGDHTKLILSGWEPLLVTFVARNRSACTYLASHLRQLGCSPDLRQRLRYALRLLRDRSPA
Chain of Aurora kinase B (Q96GD4 whole entry): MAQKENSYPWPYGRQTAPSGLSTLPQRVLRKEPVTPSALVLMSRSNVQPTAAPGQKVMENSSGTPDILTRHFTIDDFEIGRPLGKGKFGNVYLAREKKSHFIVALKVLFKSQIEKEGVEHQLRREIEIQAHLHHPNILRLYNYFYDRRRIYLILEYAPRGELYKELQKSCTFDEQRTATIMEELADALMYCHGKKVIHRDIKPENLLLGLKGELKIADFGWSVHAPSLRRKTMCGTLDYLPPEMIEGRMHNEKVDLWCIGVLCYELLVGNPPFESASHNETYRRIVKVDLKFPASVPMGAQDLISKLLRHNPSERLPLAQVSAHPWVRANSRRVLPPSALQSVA
Chain of Serine/threonine-protein kinase 32B (Homo sapiens) (Q9NY57 whole entry): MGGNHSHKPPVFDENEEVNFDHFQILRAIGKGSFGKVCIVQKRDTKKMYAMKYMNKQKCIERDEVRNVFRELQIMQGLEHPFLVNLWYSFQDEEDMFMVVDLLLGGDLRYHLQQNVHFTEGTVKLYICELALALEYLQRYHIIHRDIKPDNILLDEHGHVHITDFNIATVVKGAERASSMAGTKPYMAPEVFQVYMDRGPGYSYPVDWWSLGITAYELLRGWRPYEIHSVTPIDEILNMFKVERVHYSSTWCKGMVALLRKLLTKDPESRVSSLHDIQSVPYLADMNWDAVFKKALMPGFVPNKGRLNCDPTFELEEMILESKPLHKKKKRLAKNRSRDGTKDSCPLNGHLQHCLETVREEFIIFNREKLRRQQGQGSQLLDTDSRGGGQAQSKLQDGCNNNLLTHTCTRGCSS
Chain of AP2-associated protein kinase 1 (Q2M2I8 whole entry, looked up): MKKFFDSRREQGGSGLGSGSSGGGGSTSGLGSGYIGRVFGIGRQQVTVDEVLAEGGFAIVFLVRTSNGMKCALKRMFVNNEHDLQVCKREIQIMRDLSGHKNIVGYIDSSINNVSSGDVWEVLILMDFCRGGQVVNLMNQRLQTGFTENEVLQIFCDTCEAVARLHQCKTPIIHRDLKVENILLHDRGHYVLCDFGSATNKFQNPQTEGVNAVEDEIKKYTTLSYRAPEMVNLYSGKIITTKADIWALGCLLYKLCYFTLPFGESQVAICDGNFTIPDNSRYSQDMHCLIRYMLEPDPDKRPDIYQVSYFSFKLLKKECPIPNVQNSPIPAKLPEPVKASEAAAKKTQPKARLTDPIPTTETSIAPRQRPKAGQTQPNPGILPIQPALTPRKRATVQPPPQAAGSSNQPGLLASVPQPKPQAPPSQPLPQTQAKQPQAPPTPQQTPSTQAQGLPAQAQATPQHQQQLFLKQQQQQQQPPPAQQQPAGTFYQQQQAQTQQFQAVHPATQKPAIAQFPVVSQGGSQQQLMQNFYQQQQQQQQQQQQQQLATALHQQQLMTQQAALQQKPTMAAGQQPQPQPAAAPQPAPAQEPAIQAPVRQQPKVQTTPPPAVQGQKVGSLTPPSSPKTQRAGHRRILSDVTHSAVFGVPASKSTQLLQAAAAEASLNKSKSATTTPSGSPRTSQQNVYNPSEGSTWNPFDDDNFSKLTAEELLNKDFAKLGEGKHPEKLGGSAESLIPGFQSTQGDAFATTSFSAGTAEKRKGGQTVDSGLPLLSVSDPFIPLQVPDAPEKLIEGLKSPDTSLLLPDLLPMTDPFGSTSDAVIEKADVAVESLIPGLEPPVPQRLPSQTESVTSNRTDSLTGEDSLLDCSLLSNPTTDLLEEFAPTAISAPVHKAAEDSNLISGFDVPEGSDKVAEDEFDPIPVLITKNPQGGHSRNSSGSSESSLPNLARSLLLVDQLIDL
Chain of RAC-beta serine/threonine-protein kinase (Homo sapiens) (P31751 whole entry): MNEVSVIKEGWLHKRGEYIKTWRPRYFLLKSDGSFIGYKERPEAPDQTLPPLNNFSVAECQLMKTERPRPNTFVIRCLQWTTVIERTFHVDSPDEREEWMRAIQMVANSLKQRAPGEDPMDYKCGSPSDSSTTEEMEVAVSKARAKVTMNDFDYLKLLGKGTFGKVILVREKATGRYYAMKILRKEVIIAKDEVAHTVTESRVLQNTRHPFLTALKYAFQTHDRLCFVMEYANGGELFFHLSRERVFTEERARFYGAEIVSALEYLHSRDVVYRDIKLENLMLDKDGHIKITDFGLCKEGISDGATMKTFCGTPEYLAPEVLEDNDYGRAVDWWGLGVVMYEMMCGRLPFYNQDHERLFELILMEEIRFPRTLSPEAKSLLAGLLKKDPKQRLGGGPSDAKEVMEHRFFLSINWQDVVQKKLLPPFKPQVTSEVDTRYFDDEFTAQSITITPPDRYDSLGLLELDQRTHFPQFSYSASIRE

% of activity ([1]; at 1 µM): 98.3%
% of activity ([1]; at 10 µM): 93%
Structure (SMILES): Cc1cc(C)cc([C@H]2c3cc(C)ccc3NC(=O)CN2C(=O)c2ccc(Br)s2)c1

Structure (SMILES): COCC(=O)NC/C=C/c1ccc2ncnc(Nc3ccc(Oc4ccc(C)nc4)c(C)c3)c2c1 [CP-724714]
% of control [2]: 84%
IC50 [3]: > 10 µM

Structure (SMILES): Cc1cc([C@@H](C)Nc2ccccc2C(=O)O)c2nc(N3CCOCC3)cc(=O)n2c1 [AZD-6482]
% of control [4]: 95%
% of control [5]: 71%

% of inhibition [6]: 4.9%
% of inhibition ([7]; at 0.01 µM): 4.5%
% of inhibition ([7]; at 0.04 µM): 8.5%
% of inhibition ([7]; at 0.2 µM): 3.8%
% of inhibition ([7]; at 1 µM): 30.1%
% of inhibition ([7]; at 5 µM): 58.9%
Structure (SMILES): CC[C@@H]1[C@H](F)C(=O)N[C@@H]1COc1nccc2cc(C(N)=O)c(OC)cc12 [ZIMLOVISERTIB]

Structure (SMILES): COc1cc(Nc2nc(C)cc(-c3cnn4nc(OC)ccc34)n2)cc(C(F)(F)F)c1
% of control [8]: 72%

Structure (SMILES): CCC(=O)N1CCN(c2ccc(-n3c(=O)ccc4cnc5ccc(-c6cnc7ccccc7c6)cc5c43)cc2C(F)(F)F)CC1
% of control [9]: 100%
% of control [10]: 100%
% of control [11]: 95%

% of inhibition [12]: 1.65%
% of control [13]: -1.87%
Structure (SMILES): Cn1cc(-n2cnc3c(NCc4nc5cc(Cl)c(Cl)cc5[nH]4)nc(N4CCOCC4)nc32)cn1

— ChEMBL document CHEMBL5465560, “Selectivity Literature for EUbOPEN Chemogenomic Library” (2024)
